Square brackets hold non-standard residues; d marks the D form. Peptide text beside a SMILES is read from it. Nle = CCCC[C@H](N)C(=O)O
How the values were obtained:
[1] = test system: hsp70 (hsp72) mRNA; assay: Northern blot of hsp70 (hsp72) mRNA in HepG2 cells; format: cell-based, human
Experimental: HepG2 cells were treated with serum-free MEM containing either 1.5% BSA alone (Control, lane1), BSA plus 40 μg/ml of ALLN (ALLN, lane2), ALLN and 10 μg/ml of actinomycin D (A+AD, lane3), or ALLN and 50 μg/ml of cycloheximide (A+CXM, lane4). After 4 hours treatment at 37° C., cells were harvested. (B). HepG2 cells were treated with 40 μg/ml of ALLN in the serum-free MEM for up to 0 hour (lane1), 1 hour (lane2), 2 hours (lane3), and 3 hours (lane4) and then harvested without recovery. Or after treatment for 3 hours in the presence of ALLN as above, the ALLN containing medium were removed, cells were washed and fed fresh medium containing only BSA for recovery of up to 1 hour (lane5), 3 hours (lane6), 5 hours (lane7) or 7 hours (lane8). The total RNA was prepared, and equal amounts of the samples were loaded and run on a 1% formaldehyde-agarose gel, blotted onto a nylon membrane, and subsequently hybridized with specific synthetic oligonucleotide probes for hsp70 mRNA as described under Experimental Details. The position of 28S and 18S rRNA are shown for reference.
Total RNA was prepared using the procedure of Chomczynski and Sacchi (Chomczynski, et al., 1987) and a commercially prepared reagent, TRISOLV™ (Biotecx Laboratories Inc., Tex.) . Equal amounts of tRNA samples (10 μg) were size-fractionated on a 1% agarose-formaldehyde gel according to the methods described (Maniatis, et al., 1982) and transferred to a piece of QIAGEN plus nylon membrane. To determine loading and transfer efficiency, RNA was stained with ethidium bromide before and after transfer. The membrane was baked for 30 min. at 80° C. in vacuo (a vacuum) followed by UV cross-linking. It was then incubated for 4 hours at 65° C. in a prehybridization mixture containing 10% dextran sulfate, 1% SDS, 1M sodium chloride, 50 mM Tris-HCl (pH 7.5) and 100 μg/ml denatured salmon sperm DNA. Hybridization was carried out for 18 hours at 65° C. in the same buffer with a ^32 P-labeled (1×10^6 cpm/ml) 40-mer oligonucleotide probe to the untranslated 5' region of a human hsp70 gene (Oncogene Science). […] The membrane was then washed four times with 2×SSC, 0.1% SDS at room temperature, one time at 65° C. for 30 min., and one time at room temperature again for 5 min., and finally rinsed with 2×SSC at room temperature. This membrane was air dried and exposed to X-ray film at -80° C. for 48 hours.
Total RNA was isolated from HepG2 cells which had been incubated for 4 hours at 37° C. (FIG. 5A) with MEM containing BSA alone (Control, lane1), BSA plus 40 μg/ml of ALLN (ALLN, lane2), BSA plus ALLN and […] of actinomycin D (A+AD, lane3) or BSA plus ALLN and 50 μg/ml of cycloheximide (A+CXM, lane4). A radioprobe containing a unique sequence specific for the 5' untranslated region of hsp72 (inducible form) (Freeman et al., 1993) was used for Northern blot analysis.

[2] = test system: Hsp60; assay: Immunoprecipitation of Hsp60 from radiolabeled HepG2 cells; format: cell-based, human; conditions: HepG2, ALLN 4 hours
Experimental: (§1) FIGS. 7A-7B: Effects of ALLN on the biosynthesis of other members of Hsp family and related proteins. HepG2 cells were pre-treated and radiolabeled with or without ALLN for 4 hours as described in FIG. 1. Cell lysates were used for SDS-PAGE (A), or for immunoprecipitation with anti-Hsp25, -Hsp27, -Hsp60, -Hsp70, -Hsp86, -Hsp90, -Hsp104, -Bip, or -albumin antibodies respectively (1 μg/ml) (B). Because the anti-Hsp25, -Hsp27, -Hsp60 and Hsp90 antibodies are from a rat source, rabbit anti-rat IgG antibody was added after the first incubation, and the incubation was extended for another 1 hour at 4° C. before collection with protein A-Sepharose.Immunoprecipitates were loaded for SDS-PAGE and aliquoted for scintillation counting and plotting. Each value was presented as mean ±S.D. from three individual culture dishes.
(§2) HepG2 cells were preincubated for 4 hours in serum-free MEM and then radiolabeled with ^3 H-Leucine (150 μCi/ml) in a serum-free, leucine-free medium. […] Cell lysates containing equal amounts of trichloroacetic acid (TCA)-insoluble radioactivity were used for immunoprecipitations by incubating with individual monoclonal antibody (1 μg/ml) for 2.5 hours at 4° C. […]

[3] = test system: Hsp104; assay: Immunoprecipitation of Hsp104 from radiolabeled HepG2 cells; format: cell-based, human; conditions: HepG2, ALLN 4 hours
Experimental: as §1, §2

[4] = test system: Bip; assay: Immunoprecipitation of Bip from radiolabeled HepG2 cells; format: cell-based, human; conditions: HepG2, ALLN 4 hours
Experimental: as §1, §2

[5] = test system: calpain; conditions: Rock, et al., 1994; cited from earlier work
[6] = test system: 3-hydroxy-3-methylglutaryl-coenzyme A (HMG-CoA) reductase; conditions: Inoue, et al., 1991; cited from earlier work

CCCC[C@@H](C=O)NC(=O)[C@H](CC(C)C)NC(=O)[C@H](CC(C)C)NC(C)=O [ALLN, N-acetyl-leucyl-leucyl-norleucinal] (Ac-Leu-Leu-[Nle]-aldehyde)
hsp70 (hsp72) mRNA after recovery ([1]; 3 hours ALLN 40 μg/ml, then 7 hours of recovery in ALLN-free medium): declined to background levels
Time of ALLN treatment to significant elevation of hsp70 (hsp72) mRNA ([1]; ALLN 40 μg/ml): ≤ 60 min
Amount of hsp70 (hsp72) mRNA ([1]; ALLN 40 μg/ml, 4 hours at 37° C.): increased dramatically
Effect on Hsp60 [2]: no effects
Effect on Hsp104 [3]: no effects
Effect on Bip [4]: no effects
Activity against calpain [5]: significant activities
Protection of HMG-CoA reductase [6]: protected
